Tested on: human peripheral blood mononuclear cells (CMSP)
Experiment: Test on lymphocyte proliferation: human peripheral blood mononuclear cells (3H-thymidine incorporation), with or without rhIL-2
Type: cell-based
Settings: 5 days; for Proliferation of human peripheral blood mononuclear cells, Con A 2 μg/ml (cpm ± DS) / Proliferation of human peripheral blood mononuclear cells, Medium (cpm ± DS) / Proliferation of human peripheral blood mononuclear cells, PHA 10 μg/ml (cpm ± DS) / Proliferation of human peripheral blood mononuclear cells, aCD3 5 μg/ml (cpm ± DS) / Proliferation of human peripheral blood mononuclear cells, aCD3 + Con A (cpm ± DS) / Proliferation of human peripheral blood mononuclear cells, aCD3 + PHA (cpm ± DS): no rhIL-2; for Proliferation of human peripheral blood mononuclear cells in the presence of rhIL-2, Con A 2 μg/ml (cpm ± DS) / Proliferation of human peripheral blood mononuclear cells in the presence of rhIL-2, Medium (cpm ± DS) / Proliferation of human peripheral blood mononuclear cells in the presence of rhIL-2, PHA 10 μg/ml (cpm ± DS) / Proliferation of human peripheral blood mononuclear cells in the presence of rhIL-2, aCD3 5 μg/ml (cpm ± DS) / Proliferation of human peripheral blood mononuclear cells in the presence of rhIL-2, aCD3 + Con A (cpm ± DS) / Proliferation of human peripheral blood mononuclear cells in the presence of rhIL-2, aCD3 + PHA (cpm ± DS): rhIL-2 100 UI/ml
Text: Tests on Human Peripheral Blood Mononuclear Cells Material and Methods:
In order to study more deeply the effects of lactone on cell proliferation, we checked whether the effects described in the above section on cells of murine origin were specific to the cell type and the species or whether, on the other hand, these effects were xeno-independent. For this, we purified human peripheral blood mononuclear cells from healthy controls and we proceeded to study the possible effects of inhibition on the proliferative activity of peripheral blood mononuclear cells (CMSP) from humans, induced by different mitogenic agents acting alone and/or in costimulation with other mitogens and in the presence or absence of recombinant human interleukin 2 (rhIL-2).
Mitogens: Phytohaemaglutinin M (PHA) (Difco Lab., Detroit, Mich., USA), Concanavalin A (Con A, 2 μg/ml, Sigma Chemical Co., Mich., USA), Immobilised anti-CD3 (OKT3, 5 μg/ml, Ortho-mune, Orthodiagnostic System) and rhIL-2 (100 IU/ml, Hoffman-La Roche, N.J., USA).
All the reagents included in these tests were diluted in RPMI 1640 culture medium (Whitaker Bioproducts, Walkersville, USA) supplemented with 10% of decomplemented foetal calf serum (Biochrom K G, Berlin), L-glutamin (2 mM, Biochrom K G), Hepes (25 mM, Biochrom K G) and antibiotic (1% penicillin streptomycin, Difco Lab, Detroit, Mich., USA).
Also, all the mitogens were optimised in a dose response way in order to obtaining the maximum proliferative response after 5 days of culture.
Venous blood: The CMSP were obtained from venous blood extracted by antecubital venous puncture. 50 ml of blood were extracted to which were added 50 U of calcic heparin and the mixture was diluted 1/1 (vol/vol) with PSS.
Human mononucleated cells: In order to isolate the CMSP they were proceeded to be separated from the rest of the blood components by means of the formation of a density gradient on Ficoll. The cells thus obtained are resuspended in PSS and centrifuged at 400×g for 10 minutes (washing process) and then resuspended in PSS. This operation is repeated three times. In the last of them, PSS is replaced with complete medium.
General culture conditions: All cell cultures were developed under conditions of sterility in a vertical laminar flow chamber, using single-use sterile materials or materials sterilised in an autoclave or with ethylene oxide. The cultures were conserved in a stove kept at a temperature of 37° C., in an atmosphere with 5% CO2 and relative humidity of 95%. In the various experiments performed, the purified CMSP cell preparations were incubated in sterile dishes with 96 wells at concentrations of 5×10^4 cells/well (200 μl) in the presence of different concentrations of different mitogens for 5 days.
The method used for quantifying the cell proliferation was analysis of the incorporation of ^3H-thymidine (^3H-T) into DNA synthesised de novo, detecting the emission of β radiation from the dry extracts of cell cultures to which the tritiated base had been added before its finalisation and collection. The synthesis of DNA was done in triplicate on sterile dishes with 96 flat-bottom wells.
From 20 to 24 hour prior to terminating the cell culture, 1 μCi of ^3H-T was added to each well containing medium; the cultures were gathered by suction through a glass filter, using a Skatron culture collector for this.
The synthesis of DNA has been expressed in counts per minute (cpm). Each test was conducted in triplicate, with those data having a variability greater than 10% compared to the mean of the triplicate being rejected, since they could indicate a technical error or contamination in the culture. The cultures were carried out at a constant cell volume per well, as well as at a constant volume of 200 μl.
Negative Control: Cells in the Presence of Complete Culture Medium
Positive Control: Stimulation of Cells without the Presence of Lactone […]

SMILES: C=C1C(=O)OC(CCc2ccc(OC)cc2)C1C (stereo not shown) [lactone]
- Proliferation of human peripheral blood mononuclear cells, Con A 2 μg/ml (cpm ± DS) (Lactone 0.0001 μg/ml): 75329 ± 9144 cpm
- Proliferation of human peripheral blood mononuclear cells, Medium (cpm ± DS) (Lactone 0.0001 μg/ml): 3175 ± 1574 cpm
- Proliferation of human peripheral blood mononuclear cells, PHA 10 μg/ml (cpm ± DS) (Lactone 0.0001 μg/ml): 76612 ± 15020 cpm
- Proliferation of human peripheral blood mononuclear cells, aCD3 5 μg/ml (cpm ± DS) (Lactone 0.0001 μg/ml): 44721 ± 4082 cpm
- Proliferation of human peripheral blood mononuclear cells, aCD3 + Con A (cpm ± DS) (Lactone 0.0001 μg/ml): 115090 ± 4133 cpm
- Proliferation of human peripheral blood mononuclear cells, aCD3 + PHA (cpm ± DS) (Lactone 0.0001 μg/ml): 105395 ± 375 cpm
- Proliferation of human peripheral blood mononuclear cells in the presence of rhIL-2, Con A 2 μg/ml (cpm ± DS) (Lactone 0.0001 μg/ml): 96972 ± 18274 cpm
- Proliferation of human peripheral blood mononuclear cells in the presence of rhIL-2, Medium (cpm ± DS) (Lactone 0.0001 μg/ml): 56451 ± 4965 cpm
- Proliferation of human peripheral blood mononuclear cells in the presence of rhIL-2, PHA 10 μg/ml (cpm ± DS) (Lactone 0.0001 μg/ml): 130524 ± 8929 cpm
- Proliferation of human peripheral blood mononuclear cells in the presence of rhIL-2, aCD3 5 μg/ml (cpm ± DS) (Lactone 0.0001 μg/ml): 87091 ± 7078 cpm
- Proliferation of human peripheral blood mononuclear cells in the presence of rhIL-2, aCD3 + Con A (cpm ± DS) (Lactone 0.0001 μg/ml): 154981 ± 15723 cpm
- Proliferation of human peripheral blood mononuclear cells in the presence of rhIL-2, aCD3 + PHA (cpm ± DS) (Lactone 0.0001 μg/ml): 133621 ± 12440 cpm
- Proliferation of human peripheral blood mononuclear cells, Con A 2 μg/ml (cpm ± DS) (Lactone 0.01 μg/ml): 55503 ± 9023 cpm
- Proliferation of human peripheral blood mononuclear cells, Medium (cpm ± DS) (Lactone 0.01 μg/ml): 2867 ± 1527 cpm
- Proliferation of human peripheral blood mononuclear cells, PHA 10 μg/ml (cpm ± DS) (Lactone 0.01 μg/ml): 71092 ± 3555 cpm
- Proliferation of human peripheral blood mononuclear cells, aCD3 5 μg/ml (cpm ± DS) (Lactone 0.01 μg/ml): 40378 ± 219 cpm
- Proliferation of human peripheral blood mononuclear cells, aCD3 + Con A (cpm ± DS) (Lactone 0.01 μg/ml): 93139 ± 3070 cpm
- Proliferation of human peripheral blood mononuclear cells, aCD3 + PHA (cpm ± DS) (Lactone 0.01 μg/ml): 67011 ± 8270 cpm
- Proliferation of human peripheral blood mononuclear cells in the presence of rhIL-2, Con A 2 μg/ml (cpm ± DS) (Lactone 0.01 μg/ml): 54196 ± 80 cpm
- Proliferation of human peripheral blood mononuclear cells in the presence of rhIL-2, Medium (cpm ± DS) (Lactone 0.01 μg/ml): 42568 ± 8631 cpm
- Proliferation of human peripheral blood mononuclear cells in the presence of rhIL-2, PHA 10 μg/ml (cpm ± DS) (Lactone 0.01 μg/ml): 106754 ± 698 cpm
- Proliferation of human peripheral blood mononuclear cells in the presence of rhIL-2, aCD3 5 μg/ml (cpm ± DS) (Lactone 0.01 μg/ml): 39771 ± 3258 cpm
- Proliferation of human peripheral blood mononuclear cells in the presence of rhIL-2, aCD3 + Con A (cpm ± DS) (Lactone 0.01 μg/ml): 130949 ± 16623 cpm
- Proliferation of human peripheral blood mononuclear cells in the presence of rhIL-2, aCD3 + PHA (cpm ± DS) (Lactone 0.01 μg/ml): 94165 ± 15647 cpm
- Proliferation of human peripheral blood mononuclear cells, Con A 2 μg/ml (cpm ± DS) (Lactone 1 μg/ml): 13294 ± 3395 cpm
- Proliferation of human peripheral blood mononuclear cells, Medium (cpm ± DS) (Lactone 1 μg/ml): 1805 ± 1870 cpm
- Proliferation of human peripheral blood mononuclear cells, PHA 10 μg/ml (cpm ± DS) (Lactone 1 μg/ml): 25118 ± 6642 cpm
- Proliferation of human peripheral blood mononuclear cells, aCD3 5 μg/ml (cpm ± DS) (Lactone 1 μg/ml): 1286 ± 255 cpm
- Proliferation of human peripheral blood mononuclear cells, aCD3 + Con A (cpm ± DS) (Lactone 1 μg/ml): 829 ± 484 cpm
- Proliferation of human peripheral blood mononuclear cells, aCD3 + PHA (cpm ± DS) (Lactone 1 μg/ml): 8689 ± 5361 cpm
- Proliferation of human peripheral blood mononuclear cells in the presence of rhIL-2, Con A 2 μg/ml (cpm ± DS) (Lactone 1 μg/ml): 71210 ± 5211 cpm
- Proliferation of human peripheral blood mononuclear cells in the presence of rhIL-2, Medium (cpm ± DS) (Lactone 1 μg/ml): 9548 ± 808 cpm
- Proliferation of human peripheral blood mononuclear cells in the presence of rhIL-2, PHA 10 μg/ml (cpm ± DS) (Lactone 1 μg/ml): 110507 ± 698 cpm
- Proliferation of human peripheral blood mononuclear cells in the presence of rhIL-2, aCD3 5 μg/ml (cpm ± DS) (Lactone 1 μg/ml): 36280 ± 77 cpm
- Proliferation of human peripheral blood mononuclear cells in the presence of rhIL-2, aCD3 + Con A (cpm ± DS) (Lactone 1 μg/ml): 66429 ± 9241 cpm
- Proliferation of human peripheral blood mononuclear cells in the presence of rhIL-2, aCD3 + PHA (cpm ± DS) (Lactone 1 μg/ml): 88220 ± 3174 cpm
- Proliferation of human peripheral blood mononuclear cells, Con A 2 μg/ml (cpm ± DS) (Lactone 10 μg/ml): 48 ± 7 cpm
- Proliferation of human peripheral blood mononuclear cells, Medium (cpm ± DS) (Lactone 10 μg/ml): 72 ± 72 cpm
- Proliferation of human peripheral blood mononuclear cells, PHA 10 μg/ml (cpm ± DS) (Lactone 10 μg/ml): 71 ± 14 cpm
- Proliferation of human peripheral blood mononuclear cells, aCD3 5 μg/ml (cpm ± DS) (Lactone 10 μg/ml): 119 ± 7 cpm
